Several values for one entry are separate records, joined by “and”; a condition that tells them apart may be missing. Equal entries are not always repeated.
What was measured:
[1] = biological target: Sodium-dependent noradrenaline transporter (Homo sapiens, UniProt P23975); assay: GPCRScan assay: inhibition of NET; parameters: radioligand conc. used [nm] 1.3 – 5.0, parental cells stable HEK
[2] = biological target: GABA-A receptor; anion channel; assay: GPCRScan assay: inhibition of GABAA/BZP; format: protein-complex assay, Rattus norvegicus; parameters: radioligand conc. used [nm] 0.6 – 4.0, parental cells brain tissue
[3] = biological target: Beta-hexosaminidase subunit beta (Homo sapiens, UniProt P07686); assay: Enzymatic HEXB assay
[4] = biological target: 5-hydroxytryptamine receptor 1A (Homo sapiens) (UniProt P08908); conditions: Compound concentration 10.0 uM
Sequence of 5-hydroxytryptamine receptor 1A (Homo sapiens) (P08908 whole entry): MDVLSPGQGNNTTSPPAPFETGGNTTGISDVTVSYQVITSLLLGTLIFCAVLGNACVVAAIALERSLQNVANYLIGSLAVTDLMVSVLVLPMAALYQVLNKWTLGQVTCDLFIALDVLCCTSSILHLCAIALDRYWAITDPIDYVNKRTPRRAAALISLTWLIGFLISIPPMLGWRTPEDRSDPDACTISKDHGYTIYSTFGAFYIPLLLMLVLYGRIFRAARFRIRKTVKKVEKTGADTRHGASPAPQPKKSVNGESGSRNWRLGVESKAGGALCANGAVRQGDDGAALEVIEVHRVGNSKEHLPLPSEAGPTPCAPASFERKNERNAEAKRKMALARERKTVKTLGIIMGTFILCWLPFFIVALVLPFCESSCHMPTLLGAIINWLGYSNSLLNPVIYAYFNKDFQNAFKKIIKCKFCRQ

[5] = biological target: 5-hydroxytryptamine receptor 1B (Homo sapiens) (UniProt P28222); conditions: Compound concentration 10.0 uM
[6] = biological target: 5-hydroxytryptamine receptor 1D (Homo sapiens, UniProt P28221); conditions: Compound concentration 10.0 uM
Sequence of 5-hydroxytryptamine receptor 1D (P28221 whole entry): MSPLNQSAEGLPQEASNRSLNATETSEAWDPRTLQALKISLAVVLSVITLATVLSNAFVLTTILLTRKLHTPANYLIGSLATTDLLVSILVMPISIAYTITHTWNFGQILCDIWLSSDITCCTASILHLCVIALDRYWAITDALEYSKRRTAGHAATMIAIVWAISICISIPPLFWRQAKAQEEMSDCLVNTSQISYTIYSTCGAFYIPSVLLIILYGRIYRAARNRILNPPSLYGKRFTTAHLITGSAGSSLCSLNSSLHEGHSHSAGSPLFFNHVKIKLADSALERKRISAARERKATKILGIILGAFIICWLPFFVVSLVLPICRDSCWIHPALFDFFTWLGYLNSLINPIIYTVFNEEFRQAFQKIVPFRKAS

[7] = biological target: 5-hydroxytryptamine receptor 2C (Homo sapiens) (UniProt P28335); conditions: Compound concentration 10.0 uM
[8] = biological target: T1, 5-hydroxytryptamine receptor 5A (Homo sapiens, UniProt P47898); conditions: Compound concentration 10.0 uM
T1 sequence (P47898 whole entry): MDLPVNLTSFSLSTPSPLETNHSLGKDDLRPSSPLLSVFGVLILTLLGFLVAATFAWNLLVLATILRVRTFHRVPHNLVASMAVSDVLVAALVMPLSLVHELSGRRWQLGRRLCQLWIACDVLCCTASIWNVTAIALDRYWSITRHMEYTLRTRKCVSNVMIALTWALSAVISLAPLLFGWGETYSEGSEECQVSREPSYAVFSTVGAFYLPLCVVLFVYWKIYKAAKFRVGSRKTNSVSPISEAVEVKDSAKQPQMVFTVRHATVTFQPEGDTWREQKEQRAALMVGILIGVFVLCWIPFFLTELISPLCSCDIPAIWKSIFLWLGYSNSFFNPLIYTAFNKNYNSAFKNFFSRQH

[9] = biological target: T2, 5-hydroxytryptamine receptor 7 (Homo sapiens, UniProt P34969); conditions: Compound concentration 10.0 uM
T2 sequence (P34969 whole entry): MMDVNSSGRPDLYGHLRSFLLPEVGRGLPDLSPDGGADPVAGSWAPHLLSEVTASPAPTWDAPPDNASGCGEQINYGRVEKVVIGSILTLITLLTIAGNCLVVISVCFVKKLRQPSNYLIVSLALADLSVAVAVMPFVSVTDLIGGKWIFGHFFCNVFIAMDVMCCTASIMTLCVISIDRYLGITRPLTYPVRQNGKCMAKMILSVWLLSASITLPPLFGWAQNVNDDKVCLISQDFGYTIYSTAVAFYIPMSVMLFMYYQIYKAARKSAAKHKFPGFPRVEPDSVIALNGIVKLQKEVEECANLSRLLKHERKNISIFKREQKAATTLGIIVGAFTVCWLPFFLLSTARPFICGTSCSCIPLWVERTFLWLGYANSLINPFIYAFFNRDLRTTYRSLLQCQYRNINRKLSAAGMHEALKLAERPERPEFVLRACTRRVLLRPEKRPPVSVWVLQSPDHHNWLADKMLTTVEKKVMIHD

[10] = biological target: D(1A) dopamine receptor (Homo sapiens) (UniProt P21728); conditions: Compound concentration 10.0 uM
[11] = biological target: D(2) dopamine receptor (Homo sapiens) (UniProt P14416); conditions: Compound concentration 10.0 uM
[12] = biological target: D(3) dopamine receptor (Homo sapiens) (UniProt P35462); conditions: Compound concentration 10.0 uM
[13] = biological target: D(1B) dopamine receptor (Homo sapiens) (UniProt P21918); conditions: Compound concentration 10.0 uM
[14] = biological target: Mu-type opioid receptor (Homo sapiens) (UniProt P35372); conditions: Compound concentration 10.0 uM
Sequence of Mu-type opioid receptor (Homo sapiens) (P35372 whole entry): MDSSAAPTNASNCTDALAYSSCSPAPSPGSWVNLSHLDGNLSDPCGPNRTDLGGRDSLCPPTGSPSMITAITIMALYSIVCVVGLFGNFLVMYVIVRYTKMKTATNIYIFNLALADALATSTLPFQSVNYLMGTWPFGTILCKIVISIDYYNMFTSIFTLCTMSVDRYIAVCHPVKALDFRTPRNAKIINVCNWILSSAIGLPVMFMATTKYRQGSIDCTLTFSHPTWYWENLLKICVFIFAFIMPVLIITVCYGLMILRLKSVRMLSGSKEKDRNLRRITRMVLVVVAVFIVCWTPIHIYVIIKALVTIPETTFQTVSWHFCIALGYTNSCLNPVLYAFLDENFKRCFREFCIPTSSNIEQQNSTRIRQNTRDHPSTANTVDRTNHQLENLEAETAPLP

[15] = biological target: Delta-type opioid receptor (Homo sapiens) (UniProt P41143); conditions: Compound concentration 10.0 uM
Sequence of Delta-type opioid receptor (Homo sapiens) (P41143 whole entry): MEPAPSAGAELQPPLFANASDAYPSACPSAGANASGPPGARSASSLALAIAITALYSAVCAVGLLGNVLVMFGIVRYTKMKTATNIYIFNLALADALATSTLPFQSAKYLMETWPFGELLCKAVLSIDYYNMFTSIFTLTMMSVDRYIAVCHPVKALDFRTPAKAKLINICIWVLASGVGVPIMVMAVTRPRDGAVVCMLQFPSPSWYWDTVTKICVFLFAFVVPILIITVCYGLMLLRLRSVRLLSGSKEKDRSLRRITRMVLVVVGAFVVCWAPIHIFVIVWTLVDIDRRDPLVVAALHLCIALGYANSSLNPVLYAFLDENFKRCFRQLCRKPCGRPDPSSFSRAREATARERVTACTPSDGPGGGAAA

[16] = biological target: GABA-A receptor; anion channel (Rattus norvegicus) (UniProt O09028+P15431+P18506+P18508+P19969+P20236+P23574+P23576+P28471+P28473+P30191+P62813+P63079+P63138+Q91ZM7+Q9ES14); conditions: Compound concentration 10.0 uM
[17] = biological target: T3, Histamine H2 receptor (Homo sapiens, UniProt P25021); conditions: Compound concentration 10.0 uM
T3 sequence (P25021 whole entry): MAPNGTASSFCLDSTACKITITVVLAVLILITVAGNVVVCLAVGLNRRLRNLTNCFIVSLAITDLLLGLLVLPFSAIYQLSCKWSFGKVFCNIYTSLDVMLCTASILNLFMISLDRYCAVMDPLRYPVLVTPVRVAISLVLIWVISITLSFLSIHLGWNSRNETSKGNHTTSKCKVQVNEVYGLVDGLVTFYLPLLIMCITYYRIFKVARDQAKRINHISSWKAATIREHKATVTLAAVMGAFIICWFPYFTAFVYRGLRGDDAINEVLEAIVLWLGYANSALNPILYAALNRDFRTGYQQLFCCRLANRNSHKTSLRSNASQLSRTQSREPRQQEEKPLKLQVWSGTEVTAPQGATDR

[18] = biological target: T4, Histamine H3 receptor (Homo sapiens, UniProt Q9Y5N1); conditions: Compound concentration 10.0 uM
T4 sequence (Q9Y5N1 whole entry): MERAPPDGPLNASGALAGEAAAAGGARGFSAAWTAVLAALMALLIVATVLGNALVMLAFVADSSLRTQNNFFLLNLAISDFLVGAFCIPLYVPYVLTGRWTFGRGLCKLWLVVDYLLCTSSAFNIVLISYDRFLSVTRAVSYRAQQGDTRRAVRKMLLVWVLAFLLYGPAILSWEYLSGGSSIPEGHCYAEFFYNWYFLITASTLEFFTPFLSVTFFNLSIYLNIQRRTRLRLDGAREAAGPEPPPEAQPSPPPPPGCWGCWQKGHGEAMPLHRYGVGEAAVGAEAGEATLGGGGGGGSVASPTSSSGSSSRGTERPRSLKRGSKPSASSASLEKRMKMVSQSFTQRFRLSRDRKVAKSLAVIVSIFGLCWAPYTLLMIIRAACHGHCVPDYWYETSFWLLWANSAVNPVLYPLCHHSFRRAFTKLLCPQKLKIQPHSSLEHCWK

[19] = biological target: Alpha-1B adrenergic receptor (Homo sapiens) (UniProt P35368); conditions: Compound concentration 10.0 uM
Sequence of Alpha-1B adrenergic receptor (Homo sapiens) (P35368 whole entry): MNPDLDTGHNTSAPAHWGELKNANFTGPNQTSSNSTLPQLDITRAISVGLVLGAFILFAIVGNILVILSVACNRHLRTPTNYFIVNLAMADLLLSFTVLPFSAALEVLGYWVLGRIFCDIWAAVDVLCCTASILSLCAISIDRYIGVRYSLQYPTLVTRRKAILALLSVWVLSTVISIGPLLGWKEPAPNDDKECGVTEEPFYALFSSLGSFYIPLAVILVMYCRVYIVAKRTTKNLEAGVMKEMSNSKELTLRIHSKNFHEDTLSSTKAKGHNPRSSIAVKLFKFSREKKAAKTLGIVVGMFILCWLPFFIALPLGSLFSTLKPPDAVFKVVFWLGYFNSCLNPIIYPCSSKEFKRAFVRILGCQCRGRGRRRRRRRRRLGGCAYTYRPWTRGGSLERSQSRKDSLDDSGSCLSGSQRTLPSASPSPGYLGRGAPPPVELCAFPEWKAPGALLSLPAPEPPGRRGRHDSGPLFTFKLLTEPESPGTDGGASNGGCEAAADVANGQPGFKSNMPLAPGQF

[20] = biological target: Muscarinic acetylcholine receptor M1 (Homo sapiens) (UniProt P11229); conditions: Compound concentration 10.0 uM
[21] = biological target: Muscarinic acetylcholine receptor M2 (Homo sapiens) (UniProt P08172); conditions: Compound concentration 10.0 uM
[22] = biological target: Muscarinic acetylcholine receptor M3 (Homo sapiens) (UniProt P20309); conditions: Compound concentration 10.0 uM
[23] = biological target: Muscarinic acetylcholine receptor M4 (Homo sapiens) (UniProt P08173); conditions: Compound concentration 10.0 uM
[24] = biological target: Alpha-1D adrenergic receptor (Homo sapiens) (UniProt P25100); conditions: Compound concentration 10.0 uM
[25] = biological target: T5, Sigma intracellular receptor 2 (Homo sapiens, UniProt Q5BJF2); conditions: Compound concentration 10.0 uM
T5 sequence (Q5BJF2 whole entry): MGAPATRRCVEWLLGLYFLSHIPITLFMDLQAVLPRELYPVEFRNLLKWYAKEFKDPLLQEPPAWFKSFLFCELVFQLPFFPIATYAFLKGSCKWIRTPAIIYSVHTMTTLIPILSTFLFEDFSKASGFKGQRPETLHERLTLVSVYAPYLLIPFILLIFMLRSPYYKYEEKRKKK

[26] = biological target: 5-hydroxytryptamine receptor 2A (Homo sapiens, UniProt P28223); assay: GPCRScan assay: inhibition of 5-HT2A; parameters: radioligand conc. used [nm] 1.2 – 2.4, parental cells HEKT
[27] = biological target: T1, 5-hydroxytryptamine receptor 5A; assay: GPCRScan assay: inhibition of 5-HT5A; parameters: radioligand conc. used [nm] 2.0 - 3.3, parental cells Flp-In CHO
[28] = biological target: 5-hydroxytryptamine receptor 6 (Homo sapiens, UniProt P50406); assay: GPCRScan assay: inhibition of 5-HT6; parameters: radioligand conc. used [nm] 2.0 – 4.0, parental cells stable HEK
[29] = biological target: T2, 5-hydroxytryptamine receptor 7; assay: GPCRScan assay: inhibition of 5-HT7A; parameters: radioligand conc. used [nm] 5.0 – 6.0, parental cells Stable HEK
[30] = biological target: Sodium-dependent dopamine transporter (Homo sapiens, UniProt Q01959); assay: GPCRScan assay: inhibition of DAT; parameters: radioligand conc. used [nm] 3.6 – 16.0, parental cells stable HEK
[31] = biological target: T3, Histamine H2 receptor; assay: GPCRScan assay: inhibition of H2; parameters: radioligand conc. used [nm] 0.02 – 0.05, parental cells Stable HEK
[32] = biological target: T4, Histamine H3 receptor; assay: GPCRScan assay: inhibition of H3; parameters: radioligand conc. used [nm] 0.5 – 1.0, parental cells HEK Flp-In
[33] = biological target: T6, Histamine H4 receptor (Homo sapiens, UniProt Q9H3N8); assay: GPCRScan assay: inhibition of H4; parameters: radioligand conc. used [nm] 1.0 – 5.0, parental cells HEK T
T6 sequence (Q9H3N8 whole entry): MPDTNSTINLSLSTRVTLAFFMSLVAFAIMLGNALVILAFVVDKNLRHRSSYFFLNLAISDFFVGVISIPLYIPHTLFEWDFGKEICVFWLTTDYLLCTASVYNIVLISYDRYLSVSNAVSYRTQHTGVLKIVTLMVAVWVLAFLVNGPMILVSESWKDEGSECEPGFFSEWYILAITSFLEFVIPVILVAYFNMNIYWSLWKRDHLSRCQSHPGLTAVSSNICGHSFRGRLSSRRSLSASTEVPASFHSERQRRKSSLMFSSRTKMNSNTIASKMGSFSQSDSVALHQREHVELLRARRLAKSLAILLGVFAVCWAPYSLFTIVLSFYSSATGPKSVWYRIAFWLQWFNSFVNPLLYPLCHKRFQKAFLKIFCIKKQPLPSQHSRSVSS

[34] = biological target: T5, Sigma intracellular receptor 2; assay: GPCRScan assay: inhibition of Sigma 2; parameters: radioligand conc. used [nm] 5.0, parental cells HEKT
[35] = biological target: Sigma non-opioid intracellular receptor 1 (Homo sapiens, UniProt Q99720); assay: GPCRScan assay: inhibition of Sigma 1; parameters: radioligand conc. used [nm] 4.0 – 5.0, parental cells HEKT
[36] = biological target: Protein O-GlcNAcase (Homo sapiens, UniProt O60502); assay: Enzymatic OGA assay
[37] = biological target: T6, Histamine H4 receptor; conditions: Compound concentration 10.0 uM
[38] = biological target: Beta-3 adrenergic receptor (Homo sapiens) (UniProt P13945); conditions: Compound concentration 10.0 uM

Sequence of Sodium-dependent noradrenaline transporter (P23975 whole entry): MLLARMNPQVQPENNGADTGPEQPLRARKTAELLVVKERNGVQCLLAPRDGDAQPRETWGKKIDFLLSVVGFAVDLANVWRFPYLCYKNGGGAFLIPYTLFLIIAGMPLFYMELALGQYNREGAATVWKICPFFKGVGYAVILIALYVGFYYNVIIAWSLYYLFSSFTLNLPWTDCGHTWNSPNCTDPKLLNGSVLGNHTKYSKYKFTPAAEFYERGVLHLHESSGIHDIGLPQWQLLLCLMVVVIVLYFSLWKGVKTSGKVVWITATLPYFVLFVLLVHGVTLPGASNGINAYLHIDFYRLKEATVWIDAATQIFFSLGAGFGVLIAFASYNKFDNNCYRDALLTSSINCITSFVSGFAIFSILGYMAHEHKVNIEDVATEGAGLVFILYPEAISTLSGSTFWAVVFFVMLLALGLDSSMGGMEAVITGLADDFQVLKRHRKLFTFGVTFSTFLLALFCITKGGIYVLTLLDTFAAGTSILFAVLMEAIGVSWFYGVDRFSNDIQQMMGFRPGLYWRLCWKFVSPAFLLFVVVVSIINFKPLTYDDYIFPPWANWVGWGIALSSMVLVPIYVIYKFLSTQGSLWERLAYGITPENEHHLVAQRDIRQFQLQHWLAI

CC1CCN(c2ccnc(NCc3cn(C)cn3)n2)CC1 [TP-040]
Ki ([1]; read-out: Ki): 1940 nM
Ki ([1]; read-out: pKi (converted)): 1910 nM
Ki [2]: 512 nM
IC50 [3]: > 10000 nM (not active)
inhibition [4]: 30%
inhibition [5]: 24.4%
inhibition [6]: 81.9%
inhibition [7]: 89.2%
inhibition [8]: 24%
inhibition [9]: 34.6%
inhibition [10]: -8.84%
inhibition [11]: 4.96%
inhibition [12]: 47%
inhibition [13]: 5.03%
inhibition [14]: 10.8%
inhibition [15]: 4.65%
inhibition [16]: 2.33%
inhibition [17]: 28.6%
inhibition [18]: 35.1%
inhibition [19]: -5.62%
inhibition [20]: 17.2%
inhibition [21]: 7.21%
inhibition [22]: 7.48%
inhibition [23]: 20.6%
inhibition [24]: 25.1%
inhibition [25]: 33.6%

CN1CCN(c2ccnc(NCCc3ccccc3)n2)CC1 [TP-040n]
Ki ([26]; read-out: Ki): 758 nM
Ki ([26]; read-out: pKi (converted)): 692 nM
Ki ([27]; read-out: Ki): 6130 nM
Ki ([27]; read-out: pKi (converted)): 5130 nM
Ki [28]: 606 nM
Ki [29]: 335 nM
Ki ([1]; read-out: Ki): 3110 nM
Ki ([1]; read-out: pKi (converted)): 3020 nM
Ki ([30]; read-out: Ki): 865 nM
Ki ([30]; read-out: pKi (converted)): 832 nM
Ki ([31]; read-out: Ki): 149 nM
Ki ([31]; read-out: pKi (converted)): 145 nM
Ki ([32]; read-out: Ki): 92.8 nM and 99.6 nM
Ki ([32]; read-out: pKi (converted)): 81.3 nM
Ki ([33]; read-out: Ki): 712 nM and 703 nM
Ki ([33]; read-out: pKi (converted)): 692 nM
Ki ([34]; read-out: Ki): 1460 nM
Ki ([34]; read-out: pKi (converted)): 1450 nM
Ki ([35]; read-out: Ki): 125 nM
Ki ([35]; read-out: pKi (converted)): 123 nM
IC50 [36]: > 10000 nM (not active)
inhibition [4]: 26.7%
inhibition [5]: 45.9%
inhibition [6]: 53.2%
inhibition [7]: 94.8%
inhibition [8]: 59.8%
inhibition [9]: 92.4%
inhibition [10]: 26.5%
inhibition [11]: 20.6%
inhibition [12]: 22.6%
inhibition [14]: 25.9%
inhibition [15]: 8.02%
inhibition [16]: 34.6%
inhibition [17]: 95.6%
inhibition [18]: 86.2%
inhibition [37]: 82.8%
inhibition [19]: 22.1%
inhibition [20]: 18.6%
inhibition [21]: -1.51%
inhibition [22]: -3.28%
inhibition [23]: 25.9%
inhibition [38]: 2.45%
inhibition [24]: 26%
inhibition [25]: 77.2%
